PubChem BioAssay AID1963837 (Molecular Pharmacology Branch, DTP, NCI, 2024)
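Also: spheroids exposed to drugs for seven days before readout.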

What follows are compounds tested on 843126-344-R-J1-PDC complex spheroid viability (assay: Anticancer human tumor 843126-344-R-J1-PDC patient-derived melanoma cell line growth inhibition [POLQ]). Conditions: second compound 0.0316 µM; first compound 3.16 µM; stronger effect = lower value.
Method in brief: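 Complex spheroid viability model combining PDC tumour cells with endothelial (HUVEC) and MSC stromal cells. Novobiocin, ART-558 or RP6685 were tested singly and in combination with standard and investigational anticancer drugs. Each was titrated in half-log steps from near clinical Cmax, or from 10 microM where Cmax was unknown.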
Compound CCc1cc2c(N3CCc4c(cc(Cn5ccnc5)cc4-c4cn(C)nc4C(F)(F)F)C3=O)ccnc2c(OC)n1 + Cc1cccc(N(C)C(=O)C2C(O)CCN2c2nc(C)cc(C(F)(F)F)c2C#N)c1 has a viability, T/C of 69.9%. COc1cc2cc(C(=O)CCC(=O)O)sc2cc1OC + Cc1cccc(N(C)C(=O)C2C(O)CCN2c2nc(C)cc(C(F)(F)F)c2C#N)c1 showed a viability, T/C of 96.4%. COc1ccc([C@@H](O)c2cc(-c3ncnc4cc(N5CCOCC5)ccc34)c(F)cc2Cl)nn1 + Cc1cccc(N(C)C(=O)C2C(O)CCN2c2nc(C)cc(C(F)(F)F)c2C#N)c1 showed a viability, T/C of 81%. O=C(Nc1ccc(O)c(NS(=O)(=O)c2ccc(F)cc2)c1)c1ccc(-c2ccccc2)cc1 + Cc1cccc(N(C)C(=O)C2C(O)CCN2c2nc(C)cc(C(F)(F)F)c2C#N)c1 gave a viability, T/C of 99.6%.

Same assay, conditions: second compound 0.0316 µM; first compound 10 µM; stronger effect = lower value
In the case of C#Cc1c(F)ccc2cc(O)cc(-c3ncc4c(N5CC6CCC(C5)N6)nc(OCC56CCCN5CC(F)C6)nc4c3F)c12 (configuration not stated) + Cc1cccc(N(C)C(=O)C2C(O)CCN2c2nc(C)cc(C(F)(F)F)c2C#N)c1, the viability, T/C is reported as 74%. C=CC(=O)N1CCN(c2nc(=O)n(-c3c(C)ccnc3C(C)C)c3nc(-c4c(O)cccc4F)c(F)cc23)C(C)C1 (configuration not stated) + Cc1cccc(N(C)C(=O)C2C(O)CCN2c2nc(C)cc(C(F)(F)F)c2C#N)c1 gave a viability, T/C of 78.6%. With CC(C)n1c(=O)n(C)c2cnc3cc(F)c(-c4ccc(OCCCN5CCCCC5)nc4)cc3c21 + Cc1cccc(N(C)C(=O)C2C(O)CCN2c2nc(C)cc(C(F)(F)F)c2C#N)c1 the viability, T/C was 60.5%. For CCc1cc2c(N3CCc4c(cc(Cn5ccnc5)cc4-c4cn(C)nc4C(F)(F)F)C3=O)cc(C)nc2c(OC)n1 + Cc1cccc(N(C)C(=O)C2C(O)CCN2c2nc(C)cc(C(F)(F)F)c2C#N)c1, the viability, T/C was 61.9%. With CCc1cc2c(N3CCc4c(cc(Cn5ccnc5)cc4-c4cn(C)nc4C(F)(F)F)C3=O)ccnc2c(OC)n1 + Cc1cccc(N(C)C(=O)C2C(O)CCN2c2nc(C)cc(C(F)(F)F)c2C#N)c1 the viability, T/C was 61.4%. Compound COc1cc2cc(C(=O)CCC(=O)O)sc2cc1OC + Cc1cccc(N(C)C(=O)C2C(O)CCN2c2nc(C)cc(C(F)(F)F)c2C#N)c1 has a viability, T/C of 92.4%. COc1ccc([C@@H](O)c2cc(-c3ncnc4cc(N5CCOCC5)ccc34)c(F)cc2Cl)nn1 + Cc1cccc(N(C)C(=O)C2C(O)CCN2c2nc(C)cc(C(F)(F)F)c2C#N)c1 gave a viability, T/C of 63.5%. In the case of O=C(Nc1ccc(O)c(NS(=O)(=O)c2ccc(F)cc2)c1)c1ccc(-c2ccccc2)cc1 + Cc1cccc(N(C)C(=O)C2C(O)CCN2c2nc(C)cc(C(F)(F)F)c2C#N)c1, the viability, T/C is reported as 70.8%.

Same assay, conditions: second compound 0.1 µM; first compound 0.0316 µM; stronger effect = lower value
C#Cc1c(F)ccc2cc(O)cc(-c3ncc4c(N5CC6CCC(C5)N6)nc(OCC56CCCN5CC(F)C6)nc4c3F)c12 (configuration not stated) + Cc1cccc(N(C)C(=O)C2C(O)CCN2c2nc(C)cc(C(F)(F)F)c2C#N)c1 showed a viability, T/C of 103%. C=CC(=O)N1CCN(c2nc(=O)n(-c3c(C)ccnc3C(C)C)c3nc(-c4c(O)cccc4F)c(F)cc23)C(C)C1 (configuration not stated) + Cc1cccc(N(C)C(=O)C2C(O)CCN2c2nc(C)cc(C(F)(F)F)c2C#N)c1 was tested, and the viability, T/C was 81.8%. In the case of CC(C)n1c(=O)n(C)c2cnc3cc(F)c(-c4ccc(OCCCN5CCCCC5)nc4)cc3c21 + Cc1cccc(N(C)C(=O)C2C(O)CCN2c2nc(C)cc(C(F)(F)F)c2C#N)c1, the viability, T/C is reported as 90.1%. Compound CCc1cc2c(N3CCc4c(cc(Cn5ccnc5)cc4-c4cn(C)nc4C(F)(F)F)C3=O)cc(C)nc2c(OC)n1 + Cc1cccc(N(C)C(=O)C2C(O)CCN2c2nc(C)cc(C(F)(F)F)c2C#N)c1 has a viability, T/C of 99%. In the case of CCc1cc2c(N3CCc4c(cc(Cn5ccnc5)cc4-c4cn(C)nc4C(F)(F)F)C3=O)ccnc2c(OC)n1 + Cc1cccc(N(C)C(=O)C2C(O)CCN2c2nc(C)cc(C(F)(F)F)c2C#N)c1, the viability, T/C is reported as 90%. Work on COc1cc2cc(C(=O)CCC(=O)O)sc2cc1OC + Cc1cccc(N(C)C(=O)C2C(O)CCN2c2nc(C)cc(C(F)(F)F)c2C#N)c1 yielded a viability, T/C of 91.1%. For COc1ccc([C@@H](O)c2cc(-c3ncnc4cc(N5CCOCC5)ccc34)c(F)cc2Cl)nn1 + Cc1cccc(N(C)C(=O)C2C(O)CCN2c2nc(C)cc(C(F)(F)F)c2C#N)c1, the viability, T/C was 85.2%. For O=C(Nc1ccc(O)c(NS(=O)(=O)c2ccc(F)cc2)c1)c1ccc(-c2ccccc2)cc1 + Cc1cccc(N(C)C(=O)C2C(O)CCN2c2nc(C)cc(C(F)(F)F)c2C#N)c1, the viability, T/C was 98.2%.

Same assay, conditions: second compound 0.1 µM; first compound 0.1 µM; stronger effect = lower value
C#Cc1c(F)ccc2cc(O)cc(-c3ncc4c(N5CC6CCC(C5)N6)nc(OCC56CCCN5CC(F)C6)nc4c3F)c12 (configuration not stated) + Cc1cccc(N(C)C(=O)C2C(O)CCN2c2nc(C)cc(C(F)(F)F)c2C#N)c1 was tested, and the viability, T/C was 98.6%. Work on C=CC(=O)N1CCN(c2nc(=O)n(-c3c(C)ccnc3C(C)C)c3nc(-c4c(O)cccc4F)c(F)cc23)C(C)C1 (configuration not stated) + Cc1cccc(N(C)C(=O)C2C(O)CCN2c2nc(C)cc(C(F)(F)F)c2C#N)c1 yielded a viability, T/C of 81.3%. Compound CC(C)n1c(=O)n(C)c2cnc3cc(F)c(-c4ccc(OCCCN5CCCCC5)nc4)cc3c21 + Cc1cccc(N(C)C(=O)C2C(O)CCN2c2nc(C)cc(C(F)(F)F)c2C#N)c1 has a viability, T/C of 104%. CCc1cc2c(N3CCc4c(cc(Cn5ccnc5)cc4-c4cn(C)nc4C(F)(F)F)C3=O)cc(C)nc2c(OC)n1 + Cc1cccc(N(C)C(=O)C2C(O)CCN2c2nc(C)cc(C(F)(F)F)c2C#N)c1 was tested, and the viability, T/C was 88.5%. Compound CCc1cc2c(N3CCc4c(cc(Cn5ccnc5)cc4-c4cn(C)nc4C(F)(F)F)C3=O)ccnc2c(OC)n1 + Cc1cccc(N(C)C(=O)C2C(O)CCN2c2nc(C)cc(C(F)(F)F)c2C#N)c1 has a viability, T/C of 88.4%. For COc1cc2cc(C(=O)CCC(=O)O)sc2cc1OC + Cc1cccc(N(C)C(=O)C2C(O)CCN2c2nc(C)cc(C(F)(F)F)c2C#N)c1, the viability, T/C was 91.4%. Work on COc1ccc([C@@H](O)c2cc(-c3ncnc4cc(N5CCOCC5)ccc34)c(F)cc2Cl)nn1 + Cc1cccc(N(C)C(=O)C2C(O)CCN2c2nc(C)cc(C(F)(F)F)c2C#N)c1 yielded a viability, T/C of 92.7%. Compound O=C(Nc1ccc(O)c(NS(=O)(=O)c2ccc(F)cc2)c1)c1ccc(-c2ccccc2)cc1 + Cc1cccc(N(C)C(=O)C2C(O)CCN2c2nc(C)cc(C(F)(F)F)c2C#N)c1 has a viability, T/C of 94.5%.

Same assay, conditions: second compound 0.1 µM; first compound 0.316 µM; stronger effect = lower value
With C#Cc1c(F)ccc2cc(O)cc(-c3ncc4c(N5CC6CCC(C5)N6)nc(OCC56CCCN5CC(F)C6)nc4c3F)c12 (configuration not stated) + Cc1cccc(N(C)C(=O)C2C(O)CCN2c2nc(C)cc(C(F)(F)F)c2C#N)c1 the viability, T/C was 92.9%. In the case of C=CC(=O)N1CCN(c2nc(=O)n(-c3c(C)ccnc3C(C)C)c3nc(-c4c(O)cccc4F)c(F)cc23)C(C)C1 (configuration not stated) + Cc1cccc(N(C)C(=O)C2C(O)CCN2c2nc(C)cc(C(F)(F)F)c2C#N)c1, the viability, T/C is reported as 94.7%. For CC(C)n1c(=O)n(C)c2cnc3cc(F)c(-c4ccc(OCCCN5CCCCC5)nc4)cc3c21 + Cc1cccc(N(C)C(=O)C2C(O)CCN2c2nc(C)cc(C(F)(F)F)c2C#N)c1, the viability, T/C was 72.7%. For CCc1cc2c(N3CCc4c(cc(Cn5ccnc5)cc4-c4cn(C)nc4C(F)(F)F)C3=O)cc(C)nc2c(OC)n1 + Cc1cccc(N(C)C(=O)C2C(O)CCN2c2nc(C)cc(C(F)(F)F)c2C#N)c1, the viability, T/C was 79%. In the case of CCc1cc2c(N3CCc4c(cc(Cn5ccnc5)cc4-c4cn(C)nc4C(F)(F)F)C3=O)ccnc2c(OC)n1 + Cc1cccc(N(C)C(=O)C2C(O)CCN2c2nc(C)cc(C(F)(F)F)c2C#N)c1, the viability, T/C is reported as 87.1%. In the case of COc1cc2cc(C(=O)CCC(=O)O)sc2cc1OC + Cc1cccc(N(C)C(=O)C2C(O)CCN2c2nc(C)cc(C(F)(F)F)c2C#N)c1, the viability, T/C is reported as 84.9%. Work on COc1ccc([C@@H](O)c2cc(-c3ncnc4cc(N5CCOCC5)ccc34)c(F)cc2Cl)nn1 + Cc1cccc(N(C)C(=O)C2C(O)CCN2c2nc(C)cc(C(F)(F)F)c2C#N)c1 yielded a viability, T/C of 86.4%. O=C(Nc1ccc(O)c(NS(=O)(=O)c2ccc(F)cc2)c1)c1ccc(-c2ccccc2)cc1 + Cc1cccc(N(C)C(=O)C2C(O)CCN2c2nc(C)cc(C(F)(F)F)c2C#N)c1 was tested, and the viability, T/C was 84.1%.

Same assay, conditions: second compound 0.1 µM; first compound 1 µM; stronger effect = lower value
In the case of C#Cc1c(F)ccc2cc(O)cc(-c3ncc4c(N5CC6CCC(C5)N6)nc(OCC56CCCN5CC(F)C6)nc4c3F)c12 (configuration not stated) + Cc1cccc(N(C)C(=O)C2C(O)CCN2c2nc(C)cc(C(F)(F)F)c2C#N)c1, the viability, T/C is reported as 76%. C=CC(=O)N1CCN(c2nc(=O)n(-c3c(C)ccnc3C(C)C)c3nc(-c4c(O)cccc4F)c(F)cc23)C(C)C1 (configuration not stated) + Cc1cccc(N(C)C(=O)C2C(O)CCN2c2nc(C)cc(C(F)(F)F)c2C#N)c1 showed a viability, T/C of 97%. Work on CC(C)n1c(=O)n(C)c2cnc3cc(F)c(-c4ccc(OCCCN5CCCCC5)nc4)cc3c21 + Cc1cccc(N(C)C(=O)C2C(O)CCN2c2nc(C)cc(C(F)(F)F)c2C#N)c1 yielded a viability, T/C of 83.1%. CCc1cc2c(N3CCc4c(cc(Cn5ccnc5)cc4-c4cn(C)nc4C(F)(F)F)C3=O)cc(C)nc2c(OC)n1 + Cc1cccc(N(C)C(=O)C2C(O)CCN2c2nc(C)cc(C(F)(F)F)c2C#N)c1 was tested, and the viability, T/C was 79.9%. In the case of CCc1cc2c(N3CCc4c(cc(Cn5ccnc5)cc4-c4cn(C)nc4C(F)(F)F)C3=O)ccnc2c(OC)n1 + Cc1cccc(N(C)C(=O)C2C(O)CCN2c2nc(C)cc(C(F)(F)F)c2C#N)c1, the viability, T/C is reported as 90%. In the case of COc1cc2cc(C(=O)CCC(=O)O)sc2cc1OC + Cc1cccc(N(C)C(=O)C2C(O)CCN2c2nc(C)cc(C(F)(F)F)c2C#N)c1, the viability, T/C is reported as 83.7%.
